What was measured:
[1] = system: intestinal and hepatic FXR signaling; assay: In vivo intestinal FXR antagonism experiment (TCA-induced); set-up: species or system mouse; conditions: mice, oral 20 mg/kg with TCA 400 mg/kg/day, 3 doses
Protocol: For the in vivo intestinal FXR antagonism experiment, after a 3-day treatment with an antibiotic cocktail (1 mg/mL neomycin, 1 mg/mL streptomycin, and 1 mg/mL bacitracin) in drinking water, 8- to 10-week-old male C57BL/6 J mice were orally administered with vehicle or TCA (400 mg/kg/day), TCA combined with GUDCA (50 mg/kg), or TCA combined with DC646 (20 mg/kg) once a day. The serum, liver, and intestine were collected 2 h after the third dosing.
(§1) The intestine and liver were frozen in liquid nitrogen and stored at −80°C. RNA was extracted, and complementary DNA was synthesized from 1 μg total RNA. RT-qPCR was performed on a Bio-Rad CFX384 Touch detection system (Bio-Rad). The primer sequences for RT-qPCR are shown in Supplementary Table S5. RNA levels were analyzed by 2-^ΔΔCt, normalized to 18S ribosomal RNA and expressed as fold change relative to the control group.

[2] = molecular target: T1, PPARα (Homo sapiens, UniProt Q07869); assay: PPARα cell-based reporter assay; conditions: 10 μmol/L; inhibition of agonist-induced receptor activation
T1 sequence (Q07869 1-468): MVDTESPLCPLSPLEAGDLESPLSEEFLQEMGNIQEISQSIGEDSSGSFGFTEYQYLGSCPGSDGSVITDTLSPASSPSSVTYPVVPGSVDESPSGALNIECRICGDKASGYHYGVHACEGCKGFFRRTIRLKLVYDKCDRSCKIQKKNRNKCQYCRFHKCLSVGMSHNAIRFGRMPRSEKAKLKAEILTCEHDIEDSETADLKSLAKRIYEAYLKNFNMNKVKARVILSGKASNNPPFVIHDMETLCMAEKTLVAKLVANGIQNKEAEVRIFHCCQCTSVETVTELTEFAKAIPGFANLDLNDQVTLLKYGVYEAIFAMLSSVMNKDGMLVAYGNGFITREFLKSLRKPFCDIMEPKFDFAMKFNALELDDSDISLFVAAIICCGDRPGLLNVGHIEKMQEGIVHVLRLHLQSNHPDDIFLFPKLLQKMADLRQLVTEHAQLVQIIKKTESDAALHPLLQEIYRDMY
From the text: (§2) Inhibition% means inhibition percentage of agonist-induced receptor activation.

[3] = molecular target: T2, PPARδ (Homo sapiens, UniProt Q03181); assay: PPARδ cell-based reporter assay; conditions: 10 μmol/L; inhibition of agonist-induced receptor activation
T2 sequence (Q03181 1-441): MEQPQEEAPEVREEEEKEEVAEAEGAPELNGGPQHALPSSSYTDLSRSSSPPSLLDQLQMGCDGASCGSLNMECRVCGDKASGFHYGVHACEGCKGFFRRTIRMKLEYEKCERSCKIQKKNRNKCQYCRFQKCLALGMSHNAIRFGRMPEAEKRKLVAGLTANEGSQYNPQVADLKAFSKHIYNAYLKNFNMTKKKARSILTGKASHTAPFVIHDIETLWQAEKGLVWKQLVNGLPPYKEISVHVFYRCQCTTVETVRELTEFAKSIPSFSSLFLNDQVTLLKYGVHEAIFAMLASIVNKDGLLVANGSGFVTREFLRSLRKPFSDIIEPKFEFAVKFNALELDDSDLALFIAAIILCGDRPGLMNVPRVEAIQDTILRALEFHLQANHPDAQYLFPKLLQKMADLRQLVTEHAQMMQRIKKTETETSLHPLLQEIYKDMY
From the text: as §2

[4] = system: intestinal FXR-ceramide axis and GLP-1; assay: HFD-fed mice, ileal FXR signaling, ceramides and serum GLP-1; type: in vivo, mouse; conditions: oral 10 and 30 mg/kg
Protocol: Mice were fasted for 6 h and gavaged with a single dose of 25 mg/kg sitagliptin, followed by 2 g/kg glucose 45 min later. Blood samples were collected 15 min after glucose administration, and GLP-1 was measured using active GLP-1 kits.
as §1
For ileal lipidomics, samples were homogenized, extracted with chloroform, and prepared for analysis. Separation was achieved using an Acquity UPLC CSH C18 column, and analysis was conducted via liquid chromatography electrospray ionization tandem mass spectrometry (LC-ESI-MS/MS). Mobile phases were comprised with acetonitrile–water and isopropanol/acetonitrile solutions, both containing 10 mmol/L ammonium acetate and 0.1% formic acid.
Supplementary Figure S9 DC646 antagonizes intestinal FXR, thereby reducing ceramide production and inducing GLP-1 production. (a) Relative mRNA expression of ileal FXR signaling. (b) Ileal ceramide levels (the data are normalized and centralized). (c) Relative mRNA expression of ileal ceramide-synthesis related genes. (d) Serum GLP-1 levels. HFD-fed mice were gavaged with vehicle or 10 mg/kg or 30 mg/kg DC646. n = 8 in each group. Data are presented as the mean ± SEM and analyzed by one-way ANOVA with Dunnett’s post hoc test. ^*P < 0.05, ^**P < 0.01, and ^***P < 0.001, versus HFD + Vehicle group.

[5] = Subacute toxicity test; type: in vivo, mouse
Protocol: For the subacute toxicity test of DC646, oral injection of vehicle, 20 mg/kg, 100 mg/kg, or 200 mg/kg DC646 to C57BL/6 male mice was carried out for 7 days. During the week, the body weight and food/water intake were monitored every day. The serum, liver, kidneys, brain, heart, lungs, spleen, testicle, and epididymis were weighed and collected 2 h after the final dosing.
Supplementary Figure S10 Subacute toxicity test of DC646 at 20 mg/kg, 100 mg/kg, or 200 mg/kg. (a) Strategy of animal experiment. (b) Body weight. (c) Food intake. (d) Water intake. (e) Representative pictures of organ morphologies. (f) 1/3 Intestine length and colon length. (g) Organ weight. (h and i) Serum ALT (h) and AST(i) levels. (j) H&E staining of heart, liver, spleen, lung, and kidney. n = 5 in each group. Data are presented as the mean ± SEM and analyzed by one-way ANOVA with Dunnett’s post hoc test.

[6] = Water solubility (co-crystallisation attempts); type: physicochemical
Protocol: To explore the molecular mechanism underlying DC646-mediated FXR antagonism, we determined the structure of the DC646 by X-ray crystal analysis (Supplementary Fig. S5). We also made efforts to co-crystalize DC646 with hFXRα-LBD. […] As an alternative, the AlphaScreen assay was conducted to investigate the mechanism (Fig. 3a).

[7] = C57BL/6 male mice, oral 20, 100, 200 mg/kg, 7 days

CC(C)C[C@@H]1NC(=O)[C@@H]2CN(CCO2)c2cccc3c2c(cn3[Si](C(C)C)(C(C)C)C(C)C)C[C@H](NS(=O)(=O)C(F)(F)F)C(=O)OCCCCNC(=O)[C@H](CC(C)C)NC(=O)[C@@H]2CN(CCO2)c2cccc3c2c(cn3[Si](C(C)C)(C(C)C)C(C)C)C[C@H](NS(=O)(=O)C(F)(F)F)C(=O)OCCCCNC1=O [DC646, N,N'-((1^2R,1^4S,16^2R,16^4S,4R,13R,19R,28R)-13,28-diisobutyl-5,12,15,20,27,30-hexaoxo-2^1,17^1-bis(triisopropylsilyl)-2^1H,17^1H-6,21-dioxa-11,14,26,29-tetraaza-1(4,2),16(2,4)-dimorpholina-2,17(4,3)-diindolacyclotriacontaphane-4,19-diyl)bis(1,1,1-trifluoromethanesulfonamide)]
Hepatic FXR signaling [1]: not hepatic FXR signaling | mRNA expression levels of TCA-induced FXR target genes Shp and Fgf15 (intestine) [1]: decreased | inhibition at 10 µM [2]: -1.3% | inhibition at 10 µM [3]: 18.9% | Ceramide levels in the ileum [4]: reduced | Serum GLP-1 levels [4]: markedly increased | FXR signaling in the ileum (mRNA levels of Shp and Fgf15) ([4]; dose-dependent): repressed | Tolerated dose over minimum effective dose ([5]; 200 mg/kg versus minimum effective dose): more than 20 folds | Food/water intake ([5]; C57BL/6 male mice, oral 200 mg/kg, 7 days, normal body weight): mildly decreased | Liver injury indicated by serum ALT and AST [5, 7]: did not cause liver injury | Organ morphology, small intestine and colon length, organ weight [5, 7]: no difference | Body weight and food/water intake ([5]; C57BL/6 male mice, oral 20 and 100 mg/kg, 7 days): did not affect | MTD at 168 h ([5]; mouse, in vivo, C57BL/6 male mice, oral, 7 days, highest dosage tested, read-out: Highest dosage with good tolerance): 200 mg/kg | Water solubility [6]: poor water solubility

From PMC11992618, “Development of cyclopeptide inhibitors specifically disrupting FXR–coactivator interaction in the intestine as a novel therapeutic strategy for MASH” (Life Metabolism, 2025)
